In ChEMBL document CHEMBL1141823, “Malayenolides A-D, novel diterpenes from the indonesian sea pen veretillum malayense” (J Nat Prod, 1999):
≈ marks a conversion by molar mass, not a printed value.

Test: Toxicity against brine shrimp
Assay type: organism-based
Conditions: artemia, in vivo

Going from `CC(=O)O[C@H]1CC=C(C)[C@@H]2CC3=C(C)C(=O)O[C@H]3/C=C(/C)CC[C@H](OC(=O)c3ccccc3)[C@@]12C` [MALAYENOLIDE A] to `CC(=O)O[C@H]1C[C@@H]2O[C@]2(C)[C@@H]2CC3=C(C)C(=O)O[C@H]3/C=C(/C)CC[C@H](OC(=O)c3ccccc3)[C@@]12C` [MALAYENOLIDE B], the LC50 falls from 100 µg/mL (≈ 209 µM) to under 2 µg/mL.

`CC(=O)O[C@H]1CC=C(C)[C@@H]2CC3=C(C)C(=O)O[C@H]3/C=C(/C)CC[C@H](OC(=O)C=C(C)C)[C@@]12C` [MALAYENOLIDE C] and `CC(=O)O[C@H]1C[C@@H]2O[C@]2(C)[C@@H]2CC3=C(C)C(=O)O[C@H]3/C=C(/C)CC[C@H](OC(=O)C=C(C)C)[C@@]12C` [MALAYENOLIDE D] are the same in LC50: 20 µg/mL (≈ 43.8 µM) for the first, 20 µg/mL (≈ 42.3 µM) for the second.
